Some test systems named below: HOP-62; SW-620; SN12C; U-251; MOLT-4; OVCAR-5; SK-MEL-28; Malme-3M; SK-MEL-5; SK-OV-3; LOX IMVI; COLO 205; EKVX; SK-MEL-2; OVCAR-8; NCI-H226; SF-268; HCT-116; HCT-15; NCI-H23.
Holding throughout (experiment): DTP human tumour cell line panel, 48 h

Structures are written as SMILES.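 Results reflect a 48-hour exposure of cells in 96-well plates to compound at five concentrations. Here, GI50 denotes the concentration required for 50% inhibition of growth.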 Active and inactive are the calls of the source. No stated cut-off is given here; in the data, active = GI50 up to about 1.1 µM and inactive = higher.

From ChEMBL document CHEMBL1201862, “PubChem BioAssay data set” (2004) come the findings set out here.

One may read the GI50 as the concentration giving 50% growth inhibition.

Regarding `O=S(=O)(/N=C(\NO)Nc1ccc(Cl)cc1)c1ccc(-c2ccccn2)s1`, the GI50 in the experiment with HOP-62 was 52.1 µM (inactive); in the experiment on SW-620, 48.1 µM (inactive); in the experiment on SN12C it was 24.4 µM (inactive); with U-251, 44.4 µM (inactive); with MOLT-4, 40.1 µM (inactive); in the experiment on OVCAR-5 it was 74.1 µM (inactive). Also, the GI50 with SK-MEL-28 was 69.2 µM (inactive); with Malme-3M it was 19.6 µM (inactive); in the experiment on SK-MEL-5, 31.4 µM (inactive); in the experiment with SK-OV-3 it was 56.1 µM (inactive); in the experiment on LOX IMVI, 57.8 µM (inactive); in the experiment with COLO 205, 45.1 µM (inactive). Moreover, the GI50 in the experiment with EKVX is 34.3 µM (inactive); in the experiment with SK-MEL-2, 46 µM (inactive); in the experiment with OVCAR-8 it was 69.5 µM (inactive); in the experiment on NCI-H226, 90.8 µM (inactive); with SF-268, 35.7 µM (inactive); in the experiment with HCT-116, 38.6 µM (inactive). Also, the results for the GI50 in the experiment on HCT-15 and in the experiment on NCI-H23 were 39.7 µM and 37.3 µM (inactive), respectively.
As to `CCN(CC)CCSc1nc(-c2c[nH]c3nc(C)ccc3c2=O)n[nH]1`, the GI50 in the experiment on HOP-62, in the experiment on SW-620, in the experiment with SN12C, in the experiment on U-251, in the experiment on MOLT-4 and in the experiment on OVCAR-5 was > 100 µM (inactive) throughout. Also, the GI50 in the experiment on SK-MEL-28, with Malme-3M, in the experiment with SK-MEL-5, with LOX IMVI, in the experiment on COLO 205 and in the experiment on EKVX was > 100 µM (inactive) in each case. In addition, the GI50 in the experiment on SK-MEL-2 was > 100 µM (inactive); in the experiment with OVCAR-8, > 100 µM (inactive); in the experiment on NCI-H226, > 100 µM (inactive); with SF-268 it was > 100 µM (inactive); with HCT-116, > 100 µM (inactive); in the experiment on HCT-15 it was more than 100 µM. Further, the GI50 in the experiment with NCI-H23 is > 100 µM (inactive).
As to `CCc1cc2c(oc3cc4ccccc4cc32)c(=O)[nH]1`, the GI50 in the experiment on SW-620, in the experiment with SN12C, with OVCAR-5, in the experiment with Malme-3M, in the experiment on LOX IMVI and in the experiment on EKVX was > 10 µM (inactive) in each case. In addition, the GI50 is > 10 µM (inactive) with SK-MEL-2; > 10 µM (inactive) in the experiment on OVCAR-8; > 10 µM (inactive) in the experiment with NCI-H226; > 10 µM (inactive) in the experiment with SF-268; > 10 µM (inactive) with HCT-116; more than 10 µM in the experiment with HCT-15.
For the compound `CCC1(C)NN=c2s/c(=C/c3ccc(OC)cc3)c(=O)n2N1` (stereo not given), the GI50 with HOP-62, in the experiment on SW-620, with SN12C, in the experiment on U-251, in the experiment on MOLT-4 and with OVCAR-5 was > 100 µM (inactive) throughout. The GI50 in the experiment with SK-MEL-28, with Malme-3M, with SK-MEL-5, in the experiment on SK-OV-3, in the experiment on LOX IMVI and in the experiment on COLO 205 was > 100 µM (inactive) in each case. In addition, the GI50 in the experiment with EKVX was > 100 µM (inactive); in the experiment on SK-MEL-2, > 100 µM (inactive); in the experiment on OVCAR-8, > 100 µM (inactive); with NCI-H226, > 100 µM (inactive); in the experiment on SF-268 it was 65 µM (inactive); in the experiment on HCT-116, > 100 µM (inactive). In the experiment on NCI-H23, the GI50 was > 100 µM (inactive).
Turning to `COc1ccc(C2c3cc4c(cc3OC(Nc3ccccc3)C2C)OCO4)cc1` (stereo not given), the GI50 was > 100 µM (inactive) with HOP-62; 64.3 µM (inactive) in the experiment with SW-620; 61.1 µM (inactive) in the experiment on SN12C; 56.8 µM (inactive) with U-251; 11.2 µM (inactive) in the experiment on MOLT-4; > 100 µM (inactive) in the experiment with OVCAR-5. Further, the GI50 with SK-MEL-28 is > 100 µM (inactive); with Malme-3M, 63.5 µM (inactive); in the experiment on SK-MEL-5, 79.4 µM (inactive); with SK-OV-3, > 100 µM (inactive); in the experiment on LOX IMVI it was 27.7 µM (inactive); in the experiment with COLO 205, 36.1 µM (inactive). For the same compound, the GI50 was 8.59 µM (inactive) in the experiment on EKVX; > 100 µM (inactive) with SK-MEL-2; 41.1 µM (inactive) in the experiment with NCI-H226; 42.9 µM (inactive) in the experiment on SF-268; 12.7 µM (inactive) in the experiment with HCT-116; 33.6 µM with HCT-15. For the same compound, the GI50 in the experiment on NCI-H23 is 64 µM (inactive).
For the compound `N#C/C(=C/NC(=S)c1ccncc1)C(N)=O`, the GI50 in the experiment with HOP-62, with SW-620, in the experiment on SN12C, in the experiment with U-251, with MOLT-4 and with OVCAR-5 was > 100 µM (inactive) each time. For the same compound, the GI50 with SK-MEL-28, in the experiment on SK-MEL-5, in the experiment on SK-OV-3, with LOX IMVI, in the experiment with COLO 205 and in the experiment on EKVX was > 100 µM (inactive) each time. The GI50 with SK-MEL-2 was > 100 µM (inactive); with OVCAR-8, > 100 µM (inactive); in the experiment on NCI-H226, > 100 µM (inactive); with SF-268, > 100 µM (inactive); in the experiment with HCT-116, > 100 µM (inactive); in the experiment with HCT-15, more than 100 µM. For the same compound, the GI50 in the experiment on NCI-H23 was > 100 µM (inactive).
Take `O=C(N/N=C/c1cc(-c2ccccc2Cl)c(-c2ccccc2Cl)o1)c1ccncc1`: the GI50 with HOP-62, in the experiment on SW-620, in the experiment with SN12C, with OVCAR-5, in the experiment on SK-MEL-28 and in the experiment with Malme-3M was > 100 µM (inactive) each time. Also, the GI50 in the experiment on SK-OV-3, with LOX IMVI, in the experiment with COLO 205, with EKVX, in the experiment on SK-MEL-2 and in the experiment with NCI-H226 was > 100 µM (inactive) in each case. Besides, the GI50 in the experiment on SF-268, with HCT-116 and in the experiment on NCI-H23 was > 100 µM (inactive) each time.
Take `CCOP(=O)(OCC)C1CC(C)OC1=O` (stereo not given): the GI50 with HOP-62, in the experiment on SW-620, with SN12C, with U-251, with MOLT-4 and with OVCAR-5 was > 100 µM (inactive) each time. In addition, the GI50 in the experiment with SK-MEL-28, with Malme-3M, in the experiment with SK-MEL-5, in the experiment with SK-OV-3, with LOX IMVI and in the experiment with COLO 205 was > 100 µM (inactive) throughout. The GI50 is > 100 µM (inactive) in the experiment on EKVX; > 100 µM (inactive) in the experiment on SK-MEL-2; > 100 µM (inactive) in the experiment with OVCAR-8; > 100 µM (inactive) in the experiment with SF-268; > 100 µM (inactive) in the experiment with HCT-116; more than 100 µM with HCT-15. For the same compound, the GI50 in the experiment on NCI-H23 is > 100 µM (inactive).
Regarding `N=C(N)c1csc([C@@H]2O[C@H](CO)[C@@H](O)[C@H]2O)n1`, the GI50 with SW-620, with SN12C, in the experiment on U-251, in the experiment with MOLT-4, in the experiment on SK-MEL-28 and in the experiment on Malme-3M was > 100 µM (inactive) each time. Also, the GI50 in the experiment with SK-MEL-5, with SK-OV-3, in the experiment on LOX IMVI, with EKVX, with SK-MEL-2 and in the experiment on OVCAR-8 was > 100 µM (inactive) in each case. The GI50 was 89.5 µM (inactive) in the experiment on NCI-H226; > 100 µM (inactive) with SF-268; > 100 µM (inactive) in the experiment on HCT-116; more than 100 µM with HCT-15; > 100 µM (inactive) in the experiment on NCI-H23.
For `Cc1ccc2nc(C(C)C)c(=O)[nH]c2c1`, the GI50 in the experiment on HOP-62 was 17.2 µM (inactive); with SW-620 it was > 100 µM (inactive); with SN12C, > 100 µM (inactive); in the experiment with U-251, 47 µM (inactive); in the experiment on MOLT-4, > 100 µM (inactive); in the experiment with OVCAR-5, > 100 µM (inactive). In addition, the GI50 in the experiment with SK-MEL-28, in the experiment with Malme-3M, with SK-MEL-5, with SK-OV-3, in the experiment with COLO 205 and in the experiment on EKVX was > 100 µM (inactive) in each case. The GI50 was 15 µM (inactive) in the experiment with SK-MEL-2; 26.1 µM (inactive) with OVCAR-8; > 100 µM (inactive) in the experiment on NCI-H226; > 100 µM (inactive) in the experiment on SF-268; > 100 µM (inactive) with HCT-116; more than 100 µM in the experiment with HCT-15. Further, the GI50 in the experiment with NCI-H23 was > 100 µM (inactive).
Regarding `C/C(=N\NC(=O)c1ccncc1)c1cccc(C(F)(F)F)c1`, the GI50 in the experiment on HOP-62, in the experiment on SW-620, in the experiment with SN12C, in the experiment on U-251, with MOLT-4 and with SK-MEL-28 was > 10 µM (inactive) throughout. Besides, the GI50 in the experiment with Malme-3M, in the experiment on SK-MEL-5, in the experiment with SK-OV-3, in the experiment with LOX IMVI, in the experiment on COLO 205 and with EKVX was > 10 µM (inactive) in each case. The GI50 is > 10 µM (inactive) in the experiment with OVCAR-8; > 10 µM (inactive) in the experiment on NCI-H226; > 10 µM (inactive) in the experiment on SF-268; more than 10 µM in the experiment with HCT-15; > 10 µM (inactive) in the experiment on NCI-H23.
